Measurements taken from patent US10517952B2, “Nucleophile-triggered degradable materials and methods of making and using the same” (GEORGIA TECH RESEARCH CORPORATION, priority 2014, dated 2019).

Key:
Assay type in all cases: physicochemical
[1] = Equilibrium swelling, gel fraction and Mc (Flory-Rehner) of PEG-OND hydrogels
Description: The swelling of the PEG-OND hydrogels in deionized water was measured at 4° C. to prevent significant fragmentation during the experiment. […] An independent experiment measuring soluble fraction thiol content yielded results complementing those obtained gravimetrically (Table S3, and related discussion below). With the knowledge that small molecules can readily permeate swollen PEG-OND hydrogels (see below), detecting and modifying residual thiols in gels prepared from divalent linkers 7a and 8 by swelling in the presence of a fluorogenic OND derivative was attempted (FIG. 15, and related discussion below).
200 μL gels were prepared in pH 7.4 100 mM phosphate buffered saline containing 7% DMSO with 3.5 wt % 4-PEG-SH and the corresponding bis-, tris-, and tetra-ONDs to provide a 1:1 thiol to electrophile ratio, and allowed to cure for 20 minutes at room temperature. The mass of the gels after curing was recorded (Meq) before suspending in 5.5 mL of water. The hydrogels were stored at 4° C. during swelling to prevent significant degradation of the network during the experiment. The increase in mass of the gels was monitored periodically by decanting and blotting the gel gently with a kimwipe to remove excess water before weighing. After 24 hours swelling, when swelling had stabilized, the mass of the gel was recorded (Meq). The equilibrium mass swelling ratio was then determined using the following relationship:
After weighing equilibrium-swelled gels to determine equilibrium mass swelling ratio, the gels were freeze-dried and the residual mass was weighed (Mres). It is expected that buffer salts present in the sample when it was formed were removed by the multiple changes of swelling solvent (pure water). The mass of the remaining residue was compared to the input mass (Min) of 4-PEG-SH macromer and OND-based linker. The ratio of the residual mass and the input mass provides the fraction of material by mass incorporated into the hydrogel network (gel fraction), as shown in the following equation: […]
The apparent molecular weight between elastically-productive crosslinks (Mc) was determined from equilibrium swelling data, collected as described in section VII.1 and applying a modified form of the Flory-Rehner equation for networks formed under dilute conditions:
[formula] where Mn is the number average molecular weight for the polymeric macromer (10,000 g/mol), v is the specific volume of the polymer ([…] for PEG) V1 is the molar volume of solvent used for swelling ([…] for water), χ is the polymer-interaction parameter (0.43 for PEG-H2O and assumed constant for the described experiments). V2, and V2, are the volume fraction of polymer in the equilibrium swollen gel and the relaxed gel after curing, respectively, and are calculated as follows:
[formula] where qw is the weight swelling ratio after equilibrium swelling, qF is the weight swelling ratio after curing, ρp is the density of the polymer (1.12 g/cm^3 for PEG), ρwater=ρcure solvent is the density of swelling solvent and solvent during gel formation (1.00 g/cm^3 for water). The weight swelling ratios qw and qF are determined from data gathered in equilibrium swelling experiments using the following relationships:
[formula] where ms is the mass of the gel after equilibrium swelling, mc is the mass of the gel after curing, and md is the mass of the dried gel, or input mass of polymer and crosslinkers.
Using the formulae above, masses of hydrogel samples recorded after equilibrium swelling, curing, and drying were applied to estimate the apparent molecular weight between crosslinks, which are summarized in Table 1 of the main text. The experimentally observed Mc values for gels formed using divalent OND linkers was lower than theoretical ideal value Mc,ideal. This can be explained by the fact that the Mc,ideal values calculated for these gels (entries 1-5 of Table S1) are greater than the entanglement molecular weight for polyethylene glycol (˜4,400 g/mol). […]

[2] = Calculation of hydrogel mesh size from equilibrium swelling data; details: equilibrium-swollen gels
Description: Using the calculated molecular weight between crosslinks, Mc, and the method previously described by Canal and Peppas, the hydrogel mesh size was calculated. First, the root-mean-square end-to-end distance of the polymer chains in the network, (r0^2)^1/2, was calculated as follows: (r0^2)^1/2=lCn^1/2n^1/2 (Equation S10) where l is the average bond length in the polymer (0.146 nm for PEG) and Cn is the characteristic ratio of the polymer (4.0 for PEG). The average number of bonds between crosslinks, n is calculated using the following equation:
[formula] where Mc is the average molecular weight between crosslinks, calculated as described in the previous section, and Mr is the molecular weight of the repeating unit for the PEG macromer (44 g/mol). Finally, the mesh size, ξ, is calculated using the following relationship: ξ=v2,s^−1/3(r0^2)^1/2 (Equation S12) where v2, is the partial volume of polymer in the equilibrium swollen hydrogel, and is calculated using the experimentally determined equilibrium weight swelling ratios.

[3] = Erosion of swollen hydrogels (BODIPY erosion probe, time-lapse photography); details: 37° C., erosion probe
Excerpt: Degradation behavior of PEG-OND hydrogels under swelling conditions was investigated by labeling 3% of the 4-PEG-SH thiols with a BODIPY fluorophore via maleimide coupling before gelation. Gels prepared from this material are expected to have slightly lower crosslink densities and to degrade sooner when compared to gels formed without the erosion probe (FIG. 19). However, the probe-labeled macromer allowed convenient monitoring and comparison of erosion behavior under conditions relevant for biological applications. An increase in absorbance (504 nm) of the swelling buffer was observed as pieces containing the labeled PEG-thiol components were detached from the gel by rDA fragmentation (FIG. 2). […] Using combinations of linkers, it was possible to produce hydrogels with release profiles tuned between those of gels prepared from a single linker (FIG. 2C).
The 3.76 wt % solution of BODIPY-labeled 4-PEG-SH prepared above was used to form hydrogels using a method identical to unlabeled gels. Briefly, BODIPY-labeled 4-PEG-SH was combined with DMSO stocks of multivalent ONDs at equimolar concentration of thiol and electrophile. […] The absorbance of the supernatant at 504 nm was measured immediately to obtain a baseline measurement (t=0 hours), and the samples were placed into a 37° C. incubator. The absorbance of the swelling supernatant was monitored periodically by removal of 1 mL of buffer into a cuvette and measuring absorbance of the sample at 504 nm. […] This process was repeated for each sample until gel degradation was complete and the absorbance at 504 nm stabilized (100% dye released). In order to estimate the fraction of dye released from the non-degradable gel formed with bi s-EONB 8, a mock endpoint sample consisting of BODIPY-labeled 4-PEG-SH diluted to 3.5 wt % was prepared, and the absorbance at 504 nm was measured. […] The absorbance values collected over the course of the experiment were divided by the absorbance value measured after gel disintegration to obtain fractional dye release versus time. […]
The time at which the glass bead reached the bottom of the tube was recorded. […]

COC(=O)C1=C(C(=O)OC)C2(CNC(=O)CC(O)(CC(=O)NCC34C=CC(O3)C(C(=O)OC)=C4C(=O)OC)C(=O)NCC34C=CC(O3)C(C(=O)OC)=C4C(=O)OC)C=CC1O2 (centres unmarked) [Linker 11, Tetramethyl 1,1′-(((2-(2-(((2,3-bis(methoxycarbonyl)-7-oxabicyclo[2.2.1]hepta-2,5-dien-1-yl)methyl)amino)-2-oxoethyl)-2-hydroxysuccinyl)bis(azanediyl))bis (methylene))bis(7′-oxabicyclo[2.2.1]hepta-2,5-diene-2,3-dicarboxylate)]
Mc (apparent molecular weight between elastic crosslinks) ([1]; calculated with the Flory-Rehner equation from swelling results): 3846 ± 102 g/mol
Gel Fraction ([1]; mass of dry residue post-swelling/input mass of OND and 4-PEG-SH): 0.98 ± 0.08
Equilibrium Swelling Ratio ([1]; mass post-swelling/mass pre-swelling, deionized water, 4° C., 24 hours, n = 3 gels): 1.54 ± 0.07
Calculated mesh size [2]: 13.7 ± 1.3 nm
Gel stability under swelling conditions compared with gels from divalent ONDs [3]: more stable gels
